From ChEMBL document CHEMBL1201862, “PubChem BioAssay data set” (2004)
Where “and” joins values, the source holds several entries; their conditions need not be identical. Equal values may be shown once. Calls of active or inactive are those of the source.

Legend:
[1] = target: 1-acylglycerol-3-phosphate O-acyltransferase ABHD5/Perilipin-5 (Homo sapiens, UniProt Q00G26+Q8WTS1); test: Luminescence-based biochemical high throughput dose response assay for inhibitors of the interaction of the lipase co-activator protein, abhydrolase domain containing 5 (ABHD5) with perilipin-5 (MLDP; PLIN5) (2K validation set). [Related pubchem assays (depositor defined):AID493035, AID493241]
Sequence of 1-acylglycerol-3-phosphate O-acyltransferase ABHD5/Perilipin-5 (Q00G26 whole entry, the tested form may be a part): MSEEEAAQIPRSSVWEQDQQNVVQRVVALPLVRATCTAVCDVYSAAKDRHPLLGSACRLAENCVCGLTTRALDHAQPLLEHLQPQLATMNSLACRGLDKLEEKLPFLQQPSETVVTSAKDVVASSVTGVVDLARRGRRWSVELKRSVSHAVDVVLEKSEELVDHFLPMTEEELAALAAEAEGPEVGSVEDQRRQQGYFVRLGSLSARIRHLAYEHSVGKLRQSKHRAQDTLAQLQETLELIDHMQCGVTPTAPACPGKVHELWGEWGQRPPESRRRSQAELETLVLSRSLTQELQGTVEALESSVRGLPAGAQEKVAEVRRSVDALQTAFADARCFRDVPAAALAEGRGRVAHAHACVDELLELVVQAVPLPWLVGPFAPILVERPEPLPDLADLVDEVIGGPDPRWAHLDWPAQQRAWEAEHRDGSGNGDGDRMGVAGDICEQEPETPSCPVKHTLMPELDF
Sequence of 1-acylglycerol-3-phosphate O-acyltransferase ABHD5/Perilipin-5 (Q8WTS1 whole entry, the tested form may be a part): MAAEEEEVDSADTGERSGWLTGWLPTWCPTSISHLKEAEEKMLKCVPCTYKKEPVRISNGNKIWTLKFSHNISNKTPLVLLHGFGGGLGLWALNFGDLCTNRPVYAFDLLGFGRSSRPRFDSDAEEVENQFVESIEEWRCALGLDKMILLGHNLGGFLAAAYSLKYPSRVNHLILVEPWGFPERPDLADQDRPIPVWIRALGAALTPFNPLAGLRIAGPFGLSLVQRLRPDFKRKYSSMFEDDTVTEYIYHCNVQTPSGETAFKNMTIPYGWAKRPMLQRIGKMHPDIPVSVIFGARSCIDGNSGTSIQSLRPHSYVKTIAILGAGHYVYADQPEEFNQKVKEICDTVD

[2] = target: Genome polyprotein (dengue virus type 2, UniProt P29990); test: Dengue-2 NS5 methyltransferase inhibitors, primary screen, biochemical, confirmation dose response (AID 588689); format: functional
Sequence of Genome polyprotein (P29990 2492-3391 limits assumed): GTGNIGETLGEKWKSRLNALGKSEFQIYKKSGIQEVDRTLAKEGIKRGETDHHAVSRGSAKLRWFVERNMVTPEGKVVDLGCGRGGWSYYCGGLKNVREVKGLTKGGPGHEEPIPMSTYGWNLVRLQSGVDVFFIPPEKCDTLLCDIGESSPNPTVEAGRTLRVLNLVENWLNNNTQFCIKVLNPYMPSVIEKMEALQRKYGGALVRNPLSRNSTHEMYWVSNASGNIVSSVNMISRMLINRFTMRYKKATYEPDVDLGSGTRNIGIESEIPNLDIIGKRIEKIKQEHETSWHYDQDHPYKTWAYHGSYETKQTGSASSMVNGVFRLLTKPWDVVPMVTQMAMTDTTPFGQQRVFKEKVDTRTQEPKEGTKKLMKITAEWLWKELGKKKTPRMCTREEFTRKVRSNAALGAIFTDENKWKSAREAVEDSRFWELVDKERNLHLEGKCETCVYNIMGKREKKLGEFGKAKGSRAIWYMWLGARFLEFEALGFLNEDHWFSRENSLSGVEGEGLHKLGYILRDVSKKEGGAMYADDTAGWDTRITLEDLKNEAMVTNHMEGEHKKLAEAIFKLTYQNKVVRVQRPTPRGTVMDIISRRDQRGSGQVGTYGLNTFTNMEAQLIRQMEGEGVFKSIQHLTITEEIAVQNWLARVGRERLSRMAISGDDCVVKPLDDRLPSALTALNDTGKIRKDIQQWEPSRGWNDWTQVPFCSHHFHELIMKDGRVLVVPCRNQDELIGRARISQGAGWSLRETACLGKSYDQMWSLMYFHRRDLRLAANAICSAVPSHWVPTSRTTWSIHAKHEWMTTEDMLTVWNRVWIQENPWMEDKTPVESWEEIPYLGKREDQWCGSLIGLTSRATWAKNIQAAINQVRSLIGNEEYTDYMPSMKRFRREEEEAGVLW

[3] = target: Perilipin-1/ABHD5 (Homo sapiens, UniProt O60240+Q8WTS1); test: Luminescence-based biochemical high throughput dose response assay for inhibitors of the interaction of the lipase co-activator protein, abhydrolase domain containing 5 (ABHD5) with perilipin-1 (PLIN1) (2K validation set). [Related pubchem assays (depositor defined):AID493027, AID493057]
Sequence of Perilipin-1/ABHD5 (Q8WTS1 whole entry, the tested form may be a part): as the sequence (Q8WTS1 whole entry, the tested form may be a part) above
Sequence of Perilipin-1/ABHD5 (O60240 whole entry, the tested form may be a part): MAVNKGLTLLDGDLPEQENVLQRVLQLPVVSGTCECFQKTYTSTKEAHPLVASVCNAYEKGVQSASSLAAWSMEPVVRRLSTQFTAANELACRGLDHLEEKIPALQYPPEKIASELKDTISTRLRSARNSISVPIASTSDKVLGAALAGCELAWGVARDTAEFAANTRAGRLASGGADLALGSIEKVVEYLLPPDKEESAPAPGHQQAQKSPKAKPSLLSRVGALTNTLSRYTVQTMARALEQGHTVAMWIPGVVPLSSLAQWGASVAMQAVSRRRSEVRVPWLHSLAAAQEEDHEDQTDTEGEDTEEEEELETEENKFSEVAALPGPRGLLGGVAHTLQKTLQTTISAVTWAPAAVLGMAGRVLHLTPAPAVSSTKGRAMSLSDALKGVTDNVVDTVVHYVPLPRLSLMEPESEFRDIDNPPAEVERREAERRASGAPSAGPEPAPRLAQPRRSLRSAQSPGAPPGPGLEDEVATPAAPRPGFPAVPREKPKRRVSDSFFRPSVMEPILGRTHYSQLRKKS

[4] = target: T1, Polyadenylate-binding protein 1 (Homo sapiens, UniProt P11940); test: PABP1 MLLE–PAM2 binding inhibitor potency, dose response, biochemical, fluorescence polarization, FITC-PAM2 peptide (AID 602259); format: functional; settings: read-out: IC50_Mean
T1 sequence (P11940 whole entry): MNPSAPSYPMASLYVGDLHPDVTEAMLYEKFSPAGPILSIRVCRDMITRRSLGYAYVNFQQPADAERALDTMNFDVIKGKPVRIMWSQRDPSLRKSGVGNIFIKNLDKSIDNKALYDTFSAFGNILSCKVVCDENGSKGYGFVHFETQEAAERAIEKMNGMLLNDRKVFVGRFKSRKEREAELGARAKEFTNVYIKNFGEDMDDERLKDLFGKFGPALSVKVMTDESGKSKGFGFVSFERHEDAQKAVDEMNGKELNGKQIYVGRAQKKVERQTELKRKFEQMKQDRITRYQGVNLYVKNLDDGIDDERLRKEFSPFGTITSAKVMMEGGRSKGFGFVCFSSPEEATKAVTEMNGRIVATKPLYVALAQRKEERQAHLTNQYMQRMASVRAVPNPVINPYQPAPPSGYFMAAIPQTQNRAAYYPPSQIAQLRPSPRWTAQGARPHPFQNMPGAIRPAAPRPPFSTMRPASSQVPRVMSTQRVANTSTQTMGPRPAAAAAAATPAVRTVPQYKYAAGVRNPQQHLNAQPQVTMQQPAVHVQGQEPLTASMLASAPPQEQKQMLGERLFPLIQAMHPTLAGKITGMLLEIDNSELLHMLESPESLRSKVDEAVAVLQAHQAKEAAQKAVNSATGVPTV

[5] = target: T1, Polyadenylate-binding protein 1; test: PABP1 MLLE–PAM2 interaction inhibitors, dose response, miRNA deadenylation inhibitor project, biochemical, fluorescence polarization, Cy5-PAM2 peptide, secondary (AID 602260); format: functional; settings: read-out: IC50_Mean
[6] = target: T2, Mannose-6-phosphate isomerase (Homo sapiens, UniProt P34949); test: human PMI inhibitors, high substrate, primary screen, biochemical, fluorescence intensity, high mannose 6-phosphate (AID 1220)
T2 sequence (P34949 whole entry): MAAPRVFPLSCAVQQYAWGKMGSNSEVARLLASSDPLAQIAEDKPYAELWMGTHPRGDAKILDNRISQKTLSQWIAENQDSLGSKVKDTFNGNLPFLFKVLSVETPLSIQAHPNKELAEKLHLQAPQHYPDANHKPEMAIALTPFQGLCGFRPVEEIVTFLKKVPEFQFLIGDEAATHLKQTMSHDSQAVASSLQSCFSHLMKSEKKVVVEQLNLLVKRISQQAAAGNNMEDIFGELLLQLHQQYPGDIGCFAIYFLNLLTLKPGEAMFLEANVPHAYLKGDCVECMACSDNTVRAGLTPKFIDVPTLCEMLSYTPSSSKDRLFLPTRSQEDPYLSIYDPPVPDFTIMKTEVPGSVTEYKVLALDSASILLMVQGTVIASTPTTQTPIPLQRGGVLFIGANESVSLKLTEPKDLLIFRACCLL

[7] = target: Alkaline phosphatase, placental type (Homo sapiens, UniProt P05187); test: PLAP enzyme inhibitors, confirmation, biochemical, luminescence (AID 1512); format: functional
[8] = target: T3, Alkaline phosphatase, tissue-nonspecific isozyme (Homo sapiens, UniProt P05186); test: human TNAP enzyme inhibitors, SAR follow-up, biochemical, luminescent, dose response (AID 1056)
T3 sequence (P05186 whole entry): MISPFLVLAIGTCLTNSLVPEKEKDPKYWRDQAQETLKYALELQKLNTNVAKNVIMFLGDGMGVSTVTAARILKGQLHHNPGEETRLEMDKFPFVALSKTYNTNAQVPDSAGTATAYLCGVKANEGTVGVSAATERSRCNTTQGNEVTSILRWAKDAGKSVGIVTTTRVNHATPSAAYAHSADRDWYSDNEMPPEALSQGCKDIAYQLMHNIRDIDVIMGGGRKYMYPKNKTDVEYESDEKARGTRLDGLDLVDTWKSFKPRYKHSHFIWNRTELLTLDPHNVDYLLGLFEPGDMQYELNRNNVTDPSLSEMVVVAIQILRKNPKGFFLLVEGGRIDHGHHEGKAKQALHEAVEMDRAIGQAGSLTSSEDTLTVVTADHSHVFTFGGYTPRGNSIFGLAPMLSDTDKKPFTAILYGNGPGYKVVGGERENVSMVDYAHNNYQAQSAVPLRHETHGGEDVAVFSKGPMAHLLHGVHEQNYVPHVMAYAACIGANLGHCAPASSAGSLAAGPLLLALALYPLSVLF

[9] = target: Low molecular weight phosphotyrosine protein phosphatase (Homo sapiens, UniProt P24666); format: functional; settings: read-out: IC50_Mean;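 also: Dose-response confirmation assay measuring inhibition of LMPTP enzyme activity by fluorescence intensity read-out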
Sequence of Low molecular weight phosphotyrosine protein phosphatase (P24666 whole entry, the tested form may be a part): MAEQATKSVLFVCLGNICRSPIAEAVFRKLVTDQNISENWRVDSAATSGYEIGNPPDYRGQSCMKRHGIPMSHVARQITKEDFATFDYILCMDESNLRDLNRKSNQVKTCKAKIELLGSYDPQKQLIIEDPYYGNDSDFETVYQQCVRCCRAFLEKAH

[10] = target: Type-1 angiotensin II receptor (Homo sapiens, UniProt P30556); test: AT1 receptor agonists, dose response, selectivity assay for APJ receptor agonist project, cell-based, uHTS hits (AID 488865); format: functional;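 also: beta-arrestin recruitment to AT1 measured by enzyme fragment complementation luminescence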
Sequence of Type-1 angiotensin II receptor (P30556 whole entry, the tested form may be a part): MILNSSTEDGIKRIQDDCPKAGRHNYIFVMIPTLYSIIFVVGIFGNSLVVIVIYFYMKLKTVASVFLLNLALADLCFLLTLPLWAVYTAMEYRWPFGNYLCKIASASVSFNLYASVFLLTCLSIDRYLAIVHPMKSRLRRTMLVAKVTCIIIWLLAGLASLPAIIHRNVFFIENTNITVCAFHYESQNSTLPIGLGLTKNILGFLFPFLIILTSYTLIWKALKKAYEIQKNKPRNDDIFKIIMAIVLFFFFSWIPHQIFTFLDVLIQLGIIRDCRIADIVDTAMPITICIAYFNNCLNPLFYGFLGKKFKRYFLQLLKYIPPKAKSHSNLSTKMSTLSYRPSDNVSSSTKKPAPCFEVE

[11] = target: DNA dC->dU-editing enzyme APOBEC-3A (Homo sapiens, UniProt P31941); test: Dose Response confirmation of small molecule APOBEC3A DNA Deaminase Inhibitors via a fluorescence-based single-stranded DNA deaminase assay. [Related pubchem assays (depositor defined):AID493011, AID493024]; format: functional
[12] = target: DNA dC->dU-editing enzyme APOBEC-3G (Homo sapiens, UniProt Q9HC16); format: functional;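 also: Dose-response counterscreen measuring inhibition of APOBEC3G DNA deaminase activity, run while confirming APOBEC3A inhibitors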
[13] = Vero E6 cell cytotoxicity, dose response, cytotoxicity control for non-replicating M. tuberculosis project, secondary assay (AID 492998); format: functional, VeroE6; settings: Vero C1008
[14] = microbe, parasite or virus in culture; format: functional; settings: Mycobacterium tuberculosis
[15] = HepG2 cell cytotoxicity, dose response, cytotoxicity control for non-replicating M. tuberculosis project (AID 489018); format: functional; settings: Mycobacterium tuberculosis
[16] = THP-1 cell cytotoxicity, dose response, cytotoxicity control for non-replicating M. tuberculosis project (AID 489025); format: functional
[17] = cells; format: functional
[18] = target: T4, Runt-related transcription factor 1/Core-binding factor subunit beta (Homo sapiens, UniProt Q01196+Q13951); test: inhibitors of RUNX1 Runt–CBFb-SMMHC binding, biochemical, TR-FRET (AID 1438); format: protein assay
T4 sequence (Q01196 whole entry, the tested form may be a part): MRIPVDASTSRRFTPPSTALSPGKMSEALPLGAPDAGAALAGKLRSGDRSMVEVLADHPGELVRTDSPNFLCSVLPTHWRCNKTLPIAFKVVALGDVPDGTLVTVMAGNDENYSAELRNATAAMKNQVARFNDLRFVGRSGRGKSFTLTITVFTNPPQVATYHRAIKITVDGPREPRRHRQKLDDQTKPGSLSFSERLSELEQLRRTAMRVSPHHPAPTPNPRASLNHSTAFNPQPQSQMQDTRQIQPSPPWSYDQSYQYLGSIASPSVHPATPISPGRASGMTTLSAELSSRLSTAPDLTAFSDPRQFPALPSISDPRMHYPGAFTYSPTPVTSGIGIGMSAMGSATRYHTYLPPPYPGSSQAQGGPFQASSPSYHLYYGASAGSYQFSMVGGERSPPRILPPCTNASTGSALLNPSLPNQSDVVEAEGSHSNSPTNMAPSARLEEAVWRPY
T4 sequence (Q13951 whole entry, the tested form may be a part): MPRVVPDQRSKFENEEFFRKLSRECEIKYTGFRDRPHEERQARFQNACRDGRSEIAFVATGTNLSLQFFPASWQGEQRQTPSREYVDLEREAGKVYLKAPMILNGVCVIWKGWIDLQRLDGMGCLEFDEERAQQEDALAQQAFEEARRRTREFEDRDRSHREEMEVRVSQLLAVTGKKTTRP

[19] = target: T4, Runt-related transcription factor 1/Core-binding factor subunit beta; test: inhibitors of RUNX1 Runt–CBFb-SMMHC binding, primary screen, biochemical, FRET, Cerulean-Runt, Venus-CBFb-SMMHC, uHTS (AID 1434); format: protein assay;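 also: partner is the CBFb-SMMHC leukemia fusion protein rather than wild-type CBFb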
[20] = target: T5, Kappa-type opioid receptor (Homo sapiens, UniProt P41145); test: SAR analysis of Antagonists of the Kappa Opioid Receptor (KOR) using an Image-Based Assay - Set 3. [Related pubchem assays (depositor defined):AID1777, AID1785]; format: functional
T5 sequence (P41145 whole entry): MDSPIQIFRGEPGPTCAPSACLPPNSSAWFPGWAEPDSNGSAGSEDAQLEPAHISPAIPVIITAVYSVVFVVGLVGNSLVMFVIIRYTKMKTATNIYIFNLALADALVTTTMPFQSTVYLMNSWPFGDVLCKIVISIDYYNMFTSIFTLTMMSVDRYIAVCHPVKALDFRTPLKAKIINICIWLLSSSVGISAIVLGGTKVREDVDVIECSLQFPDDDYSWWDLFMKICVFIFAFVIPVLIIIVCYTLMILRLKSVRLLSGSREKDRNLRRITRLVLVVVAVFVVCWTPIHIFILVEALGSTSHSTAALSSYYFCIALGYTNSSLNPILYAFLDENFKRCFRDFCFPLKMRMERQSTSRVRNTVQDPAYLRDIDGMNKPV

[21] = target: T5, Kappa-type opioid receptor; test: SAR analysis of small molecule antagonists of the kappa opioid receptor via a luminescent beta-arrestin assay - Set 3. [Related pubchem assays (depositor defined):AID1777, AID1778, AID1785, AID1786, AID1966, AID2133, AID2136, AID2285, AID2495]; format: functional
[22] = target: Delta-type opioid receptor (Homo sapiens, UniProt P41143); test: SAR Analysis of Antagonists of the DOR Receptor using an Image-Based Assay - Set 3. [Related pubchem assays (depositor defined):AID1777, AID1785]; format: functional;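 also: U2OS cells expressing DOR1 and beta-arrestin GFP stimulated with 100 nM SNC80; imaging of GFP-tagged beta-arrestin moving into spots after receptor activation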
[23] = target: Mu-type opioid receptor (Homo sapiens, UniProt P35372); test: SAR Analysis of Antagonists of the MOR Receptor using an Image-Based Assay - Set 3. [Related pubchem assays (depositor defined):AID1777, AID1785, AID1786, AID1966, AID2133, AID2136, AID2284, AID2285, AID2420]; format: functional
Sequence of Mu-type opioid receptor (P35372 whole entry): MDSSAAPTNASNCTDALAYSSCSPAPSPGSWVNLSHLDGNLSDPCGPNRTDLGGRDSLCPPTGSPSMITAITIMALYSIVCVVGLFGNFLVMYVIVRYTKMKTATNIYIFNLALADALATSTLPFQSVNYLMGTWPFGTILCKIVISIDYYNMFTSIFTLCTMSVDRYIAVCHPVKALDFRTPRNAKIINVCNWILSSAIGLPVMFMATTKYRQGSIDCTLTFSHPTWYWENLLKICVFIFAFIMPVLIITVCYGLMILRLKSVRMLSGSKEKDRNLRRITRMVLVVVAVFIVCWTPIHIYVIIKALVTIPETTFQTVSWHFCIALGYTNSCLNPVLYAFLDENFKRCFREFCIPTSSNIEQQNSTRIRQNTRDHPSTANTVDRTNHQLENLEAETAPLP

Q: With COc1cc(/C=C2\C(=O)NC(=O)N(c3ccccc3)C2=O)c([N+](=O)[O-])cc1OC as the compound, how does the IC50 [1] read?
A: 3.41 µM (active)

Q: What about the IC50 [2] of the same compound?
A: 17.3 µM (active)

Q: And the IC50 [3]?
A: 3.29 µM (active)

Q: What about the IC50 [4] of the same compound?
A: 42.8 µM (inactive)

Q: And the IC50 [5]?
A: 53.9 µM (inactive)

Q: And the IC50 [6]?
A: > 50 µM (not active)

Q: Which IC50 [7] does the source give for COC(=O)c1cc(-c2c[nH]c3ccccc23)[nH]n1 here?
A: > 100 µM (inactive)

Q: And the IC50 [8]?
A: 1.67 µM (active) and 906 nM (active)

Q: For COc1cc2c(cc1NC(=O)c1cccc([N+](=O)[O-])c1)oc1ccccc12, which IC50 [9] is on record?
A: 14.2 µM (active)

Q: What about the EC50 [10] of the same compound?
A: > 100 µM (inactive)

Q: With Cc1nc(O)c(C#N)c(C)c1CCC(=O)Nc1cc(S(C)(=O)=O)ccc1Cl as the compound, how does the IC50 [11] read?
A: 9.97 µM (active)

Q: And the IC50 [12]?
A: 11.7 µM (active)

Q: Which results are given for COc1cccc(-c2nnc(NC(=O)c3ccc(S(=O)(=O)N4CCOCC4)cc3)o2)c1?
A: CC50 [13]: 7.2 µM (active); CC50 [14]: 19.7 µM (active); CC50 [15]: 13.9 µM (active); CC50 [16]: 8.51 µM (active); IC50 [17]: 22.8 µM (active)

Q: With Cc1cc(C)cc(Oc2nc3c(C)cccn3c(=O)c2/C=C(\C#N)C(=O)NC2CCS(=O)(=O)C2)c1 (stereo not drawn) as the compound, how does the IC50 [18] read?
A: 68 µM (inactive)

Q: And the IC50 [19]?
A: 4.95 µM (active)

Q: Which results are given for O=C(Cn1c(=O)c2cccn2c2ccc(F)cc21)NCCCN1CCN(c2ccc(F)cc2)CC1?
A: IC50 [20]: 14.6 µM (inactive); IC50 [21]: > 20 µM (inactive); IC50 [22]: > 32 µM (inactive); IC50 [23]: > 32 µM (inactive)
